Patent publication US9278120B2, “Inflammatory eye disorders” (Massachusetts Eye and Ear Infirmary, priority 2012, dated 2016)

Legend:
[1] = system: dendritic cells in the central cornea and superior limbus; test: In vivo confocal microscopy of dendritiform immune cell density in LSCI patients; design: species or system human; conditions: for average density of dendritic cells in the superior limbus: after treatment, pooled LSCI subjects (loteprednol etabonate or rimexolone); for average dendritic cell density in the cornea: following three months of treatment, pooled LSCI subjects (loteprednol etabonate 4 eyes, rimexolone 2 eyes), 577.4±323.8 at presentation, p=0.001
Experimental: (§1) In these experiments, the clinical charts and images of three patients diagnosed with LSCI were retrospectively reviewed. […] The patients were followed monthly until resolution. The patients were treated with topical steroid drops based on in vivo confocal microscopy findings that indicate the presence of inflammation. […] The images were quantified for dendritiform immune cell density (DC) and total counts of nerves and branches with respective density with ImageJ/Neuron J software.

[2] = Visual acuity in limbal stem cell insufficiency (LSCI) patients treated with topical steroid drops; assay type: in vivo, human; conditions: OU
Experimental: as §1

Structure (SMILES) | average density of dendritic cells in the superior limbus [1] | average dendritic cell density in the cornea [1] | visual acuity after treatment ([2]; LSCI Patient 2, 0.5% QID initially, then taper for 11 months, 20/20 OD and 20/60 OS at presentation) | visual acuity after treatment ([2]; LSCI Patient 3, 0.5% QID initially, then taper for 4 months, 20/30 OD and 20/20 OS at presentation) | visual acuity after treatment ([2]; LSCI Patient 1, 1% QID initially, then taper for 5 months, 20/25 OD and 20/40 OS at presentation)
CCOC(=O)O[C@]1(C(=O)OCCl)CC[C@H]2[C@@H]3CCC4=CC(=O)C=C[C@]4(C)[C@H]3[C@@H](O)C[C@@]21C [loteprednol etabonate] | 238.2±158.4 cells/mm^2 | 234.6±233.7 cells/mm^2 | 20/20 | 20/20 | –
CCC(=O)[C@@]1(C)[C@H](C)C[C@H]2[C@@H]3CCC4=CC(=O)C=C[C@]4(C)[C@H]3[C@@H](O)C[C@@]21C [rimexolone] | 238.2±158.4 cells/mm^2 | 234.6±233.7 cells/mm^2 | – | – | 20/20
